Assays:
galectin-1 = galectin-1 (Homo sapiens, UniProt P09382); experiment: Fluorescence anisotropy assay, affinity for galectin-1; type: binding; details: compound as inhibitor of the interaction between galectin and a fluorescein tagged saccharide probe; read-out: Gal-1 Kd
Description: (§1) The affinity of Example 1-39 for galectins were determined by a fluorescence anisotropy assay where the compound was used as an inhibitor of the interaction between galectin and a fluorescein tagged saccharide probe as described Sarme, P., Kahl-Knutsson, B., Huflejt, M., Nilsson, U. J., and Leffler H. (2004) Fluorescence polarization as an analytical tool to evaluate galectin-ligand interactions. Anal. Biochem. 334: 36-47, (Sarme et al., 2004) and Monovalent interactions of Galectin-1 By Salomonsson, Emma; Larumbe, Amaia; Tejler, Johan; Tullberg, Erik; Rydberg, Hanna; Sundin, Anders; Khabut, Areej; Frejd, Torbjorn; Lobsanov, Yuri D.; Rini, James M.; et al, From Biochemistry (2010), 49(44), 9518-9532, (Salomonsson et al., 2010).

galectin-3 = galectin-3 (Homo sapiens, UniProt P17931); experiment: Fluorescence anisotropy assay, affinity for galectin-3; type: binding; details: compound as inhibitor of the interaction between galectin and a fluorescein tagged saccharide probe; read-out: Gal-3 Kd
Description: as §1

Chain of galectin-3 (P17931 whole entry): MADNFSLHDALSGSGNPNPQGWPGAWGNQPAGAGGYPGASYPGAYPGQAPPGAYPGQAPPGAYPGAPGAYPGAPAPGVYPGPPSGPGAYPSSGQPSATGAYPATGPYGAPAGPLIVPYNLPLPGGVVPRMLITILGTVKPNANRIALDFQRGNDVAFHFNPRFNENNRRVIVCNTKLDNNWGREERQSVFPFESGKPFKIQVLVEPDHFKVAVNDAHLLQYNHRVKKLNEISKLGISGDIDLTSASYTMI
Chain of galectin-1 (P09382 whole entry): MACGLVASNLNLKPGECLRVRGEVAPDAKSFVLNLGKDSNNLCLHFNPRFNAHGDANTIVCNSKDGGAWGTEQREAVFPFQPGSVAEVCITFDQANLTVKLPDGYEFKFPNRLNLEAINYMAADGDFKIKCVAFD

For `OCC1O[C@@H](c2ccnn2-c2cc(Br)c(F)cc2C(F)(F)F)C(O)[C@@H](n2cc(-c3nc(Cl)cs3)nn2)[C@H]1O` (stereo partly drawn) [Example 24, 5-Bromo-1-{5-{3-[4-(4-chlorothiazol-2-yl)-1H-1,2,3-triazol-1-yl]-3-deoxy-β-D-galactopyranosyl}-1H-1,2-pyrazol-1-yl}-4-fluoro-2-(trifluoromethyl)benzene], the Kd (galectin-1) was 0.036 µM and the Kd (galectin-3) was 0.2 µM.

`COC1C(n2cc(-c3nc(Cl)cs3)nn2)[C@@H](O)C(CO)O[C@H]1c1cc(Cl)nn1-c1cc(Cl)ccc1C(F)(F)F` (stereo partly drawn) [Example 25, 1-{5-{3-[4-(4-Chlorothiazol-2-yl)-1H-1,2,3-triazol-1-yl]-3-deoxy-2-O-methyl-β-D-galactopyranosyl}-3-chloro-1H-1,2-pyrazol-1-yl}-5-chloro-2-(trifluoromethyl)benzene] gave a Kd (galectin-1) of 0.04 µM and a Kd (galectin-3) of 0.18 µM.

In the case of `COC1C(n2cc(-c3nc(Cl)cs3)nn2)[C@@H](O)C(CO)O[C@H]1c1cc(Br)nn1-c1cc(Cl)ccc1C(F)(F)F` (stereo partly drawn) [Example 26, 1-{3-Bromo-5-{3-[4-(4-chlorothiazol-2-yl)-1H-1,2,3-triazol-1-yl]-3-deoxy-2-O-methyl-β-D-galactopyranosyl}-1H-1,2-pyrazol-1-yl}-5-chloro-2-(trifluoromethyl)benzene], the Kd (galectin-1) is reported as 0.066 µM and the Kd (galectin-3) is reported as 0.75 µM.

In the case of `C=C(C)c1cc([C@@H]2OC(CO)[C@H](O)C(n3cc(-c4nc(Cl)cs4)nn3)C2OC)n(-c2cc(Cl)ccc2C(F)(F)F)n1` (stereo partly drawn) [Example 27, 1-{5-{3-[4-(4-Chlorothiazol-2-yl)-1H-1,2,3-triazol-1-yl]-3-deoxy-2-O-methyl-β-D-galactopyranosyl}-3-(1-methylethenyl)-1H-1,2-pyrazol-1-yl}-5-chloro-2-(trifluoromethyl)benzene], the Kd (galectin-1) is reported as 0.54 µM and the Kd (galectin-3) is reported as 1.2 µM.

Work on `COC1C(n2cc(-c3nc(Cl)cs3)nn2)[C@@H](O)C(CO)O[C@H]1c1cc(C(C)C)nn1-c1cc(Cl)ccc1C(F)(F)F` (stereo partly drawn) [Example 28, 1-{5-{3-[4-(4-Chlorothiazol-2-yl)-1H-1,2,3-triazol-1-yl]-3-deoxy-2-O-methyl-β-D-galactopyranosyl}-3-isopropyl-1H-1,2-pyrazol-1-yl}-5-chloro-2-(trifluoromethyl)benzene] yielded a Kd (galectin-1) of 0.18 µM and a Kd (galectin-3) of 0.32 µM.

In the case of `C=Cc1cc([C@@H]2OC(CO)[C@H](O)C(n3cc(-c4nc(Cl)cs4)nn3)C2OC)n(-c2cc(Cl)ccc2C(F)(F)F)n1` (stereo partly drawn) [Example 29, 1-{5-{3-[4-(4-Chlorothiazol-2-yl)-1H-1,2,3-triazol-1-yl]-3-deoxy-2-O-methyl-β-D-galactopyranosyl}-3-ethenyl-1H-1,2-pyrazol-1-yl}-5-chloro-2-(trifluoromethyl)benzene], the Kd (galectin-1) is reported as 0.19 µM and the Kd (galectin-3) is reported as 0.48 µM.

Work on `CCc1cc([C@@H]2OC(CO)[C@H](O)C(n3cc(-c4nc(Cl)cs4)nn3)C2OC)n(-c2cc(Cl)ccc2C(F)(F)F)n1` (stereo partly drawn) [Example 30, 1-{5-{3-[4-(4-Chlorothiazol-2-yl)-1H-1,2,3-triazol-1-yl]-3-deoxy-2-O-methyl-β-D-galactopyranosyl}-3-ethyl-1H-1,2-pyrazol-1-yl}-5-chloro-2-(trifluoromethyl)benzene] yielded a Kd (galectin-1) of 0.1 µM and a Kd (galectin-3) of 0.68 µM.

`COC1C(n2cc(-c3nc(Cl)cs3)nn2)[C@@H](O)C(CO)O[C@H]1c1cc(C#N)nn1-c1cc(Cl)ccc1C(F)(F)F` (stereo partly drawn) [Example 31, 1-{5-{3-[4-(4-Chlorothiazol-2-yl)-1H-1,2,3-triazol-1-yl]-3-deoxy-2-O-methyl-β-D-galactopyranosyl}-3-cyano-1H-1,2-pyrazol-1-yl}-5-chloro-2-(trifluoromethyl)benzene] was tested, and the Kd (galectin-1) was 0.071 µM and the Kd (galectin-3) was 0.4 µM.

With `COC1C(n2cc(-c3nc(Cl)cs3)nn2)[C@@H](O)C(CO)O[C@H]1c1ccnn1-c1cc(Cl)cnc1C(F)(F)F` (stereo partly drawn) [Example 32, 3-{5-{3-[4-(4-Chlorothiazol-2-yl)-1H-1,2,3-triazol-1-yl]-3-deoxy-2-O-methyl-β-D-galactopyranosyl}-1H-1,2-pyrazol-1-yl}-5-chloro-2-(trifluoromethyl)pyridine] the Kd (galectin-1) was 0.05 µM and the Kd (galectin-3) was 0.65 µM.

`COC1C(n2cc(-c3nc(Cl)cs3)nn2)[C@@H](O)C(CO)O[C@H]1c1ccnn1-c1cc(Br)cnc1C(F)(F)F` (stereo partly drawn) [Example 33, 5-Bromo-3-{5-{3-[4-(4-chlorothiazol-2-yl)-1H-1,2,3-triazol-1-yl]-3-deoxy-2-O-methyl-β-D-galactopyranosyl}-1H-1,2-pyrazol-1-yl}-2-(trifluoromethyl)pyridine] was tested, and the Kd (galectin-1) was 0.032 µM and the Kd (galectin-3) was 0.53 µM.

`COC1C(n2cc(-c3csc(N)n3)nn2)[C@@H](O)C(CO)O[C@H]1c1ccnn1-c1cc(Cl)ccc1C(F)(F)F` (stereo partly drawn) [Example 34, 1-{5-{3-[4-(2-Aminothiazol-4-yl)-1H-1,2,3-triazol-1-yl]-3-deoxy-2-O-methyl-β-D-galactopyranosyl}-1H-1,2-pyrazol-1-yl}-5-chloro-2-(trifluoromethyl)benzene] gave a Kd (galectin-1) of 0.049 µM and a Kd (galectin-3) of 6.7 µM.

In the case of `COC1C(n2cc(-c3csc(O)n3)nn2)[C@@H](O)C(CO)O[C@H]1c1ccnn1-c1cc(Cl)ccc1C(F)(F)F` (stereo partly drawn) [Example 35, 5-Chloro-1-{5-{3-deoxy-3-[4-(2-hydroxythiazol-4-yl)-1H-1,2,3-triazol-1-yl]-2-O-methyl-β-D-galactopyranosyl}-1H-1,2-pyrazol-1-yl}-2-(trifluoromethyl)benzene], the Kd (galectin-1) is reported as 0.031 µM and the Kd (galectin-3) is reported as 4.2 µM.

`COC1C(n2cc(-c3csc(O)n3)nn2)[C@@H](O)C(CO)O[C@H]1c1ccnn1-c1cc(Cl)c(Cl)cc1C(F)(F)F` (stereo partly drawn) [Example 36, 4,5-Dichloro-1-{5-{3-deoxy-3-[4-(2-hydroxythiazol-4-yl)-1H-1,2,3-triazol-1-yl]-2-O-methyl-β-D-galactopyranosyl}-1H-1,2-pyrazol-1-yl}-2-(trifluoromethyl)benzene] was tested, and the Kd (galectin-1) was 0.026 µM and the Kd (galectin-3) was 9.4 µM.

With `COC1C(n2cc(-c3csc(O)n3)nn2)[C@@H](O)C(CO)O[C@H]1c1ccnn1-c1cc(Br)c(F)cc1C(F)(F)F` (stereo partly drawn) [Example 37, 5-Bromo-1-{5-{3-deoxy-3-[4-(2-hydroxythiazol-4-yl)-1H-1,2,3-triazol-1-yl]-2-O-methyl-β-D-galactopyranosyl}-1H-1,2-pyrazol-1-yl}-4-fluoro-2-(trifluoromethyl)benzene] the Kd (galectin-1) was 0.017 µM and the Kd (galectin-3) was 4.7 µM.

In the case of `COC1C(n2cc(-c3cscn3)nn2)[C@@H](O)C(CO)O[C@H]1c1ccnn1-c1cc(Cl)ccc1C(F)(F)F` (stereo partly drawn) [Example 38, 5-Chloro-1-{5-{3-deoxy-2-O-methyl-3-[4-(4-thiazolyl)-1H-1,2,3-triazol-1-yl]-β-D-galactopyranosyl}-1H-1,2-pyrazol-1-yl}-2-(trifluoromethyl)benzene], the Kd (galectin-1) is reported as 0.12 µM and the Kd (galectin-3) is reported as 4.9 µM.

`COC1C(n2cc(-c3nc(Cl)cs3)nn2)[C@@H](O)C(CO)O[C@H]1c1cc(C(N)=O)nn1-c1cc(Cl)ccc1C(F)(F)F` (stereo partly drawn) [Example 39, 1-{3-Aminocarbonyl-5-{3-[4-(4-chlorothiazol-2-yl)-1H-1,2,3-triazol-1-yl]-3-deoxy-2-O-methyl-β-D-galactopyranosyl}-1H-1,2-pyrazol-1-yl}-5-chloro-2-(trifluoromethyl)benzene] was tested, and the Kd (galectin-1) was 0.2 µM and the Kd (galectin-3) was 0.32 µM.

— patent publication US20240132531A1, “NOVEL GALACTOSIDE INHIBITOR OF GALECTINS” (GALECTO BIOTECH AB, priority 2020, published 2024)
